Experimental data reported in the supplement of paper PMC10011410.
± gives the standard deviation of the averaged measurements.

Assays:
U-2 OS [1] = experiment: cell painting activity score (Mahalanobis distance from DMSO wells); higher = stronger morphological phenotype; details: 24 h
Protocol: (§1)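 Cell painting in U-2 OS cells (384-well, about 1,500 cells per well), compound exposure 24 h, usually six 2-fold concentrations from 20 to 0.625 uM (some compounds higher or lower). Relative cell count is the cell number per well relative to DMSO wells. Activity score is the Mahalanobis distance of the morphological profile from DMSO control wells. Mean of four technical replicate plates.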

U-2 OS [2] = experiment: relative cell count vs DMSO (cell painting) (fraction of DMSO control); higher = more cells remaining (less cytotoxic); details: 24 h
Protocol: as §1

CCc1c2c(nc3ccc(O)cc13)-c1cc3c(c(=O)n1C2)COC(=O)[C@]3(O)CC
Details	cell painting activity score, U-2 OS [1]	relative cell count, U-2 OS [2]
0.625 µM	12	0.523
1.25 µM	12.3	0.525
2.5 µM	12.7	0.515
5 µM	12.3	0.467
10 µM	12.1	0.446
20 µM	14.9	0.482

CN[C@@H]1C[C@H]2O[C@@](C)([C@@H]1OC)n1c3ccccc3c3c4c(c5c6ccccc6n2c5c31)C(=O)NC4
Details	cell painting activity score, U-2 OS [1]	relative cell count, U-2 OS [2]
0.019532 µM	16.8 ± 1.3	0.757 ± 0.098
0.07812 µM	19.8 ± 1.5	0.467 ± 0.25
0.3124 µM	21.2	0.294
0.3126 µM	25.8 ± 2.3	0.0507 ± 0.0014
1.25 µM	24.2 ± 2.7	0.095 ± 0.0065
5 µM	25.5 ± 2.6	0.127 ± 0.042
20 µM	24.1 ± 2	0.128 ± 0.039

C[C@H](CC[C@@]1(O)O[C@H]2C[C@H]3[C@@H]4CC=C5C[C@@H](O[C@@H]6O[C@H](CO)[C@@H](O[C@@H]7O[C@@H](C)[C@H](O)[C@@H](O)[C@H]7O)[C@H](O)[C@H]6O[C@@H]6O[C@@H](C)[C@H](O)[C@@H](O)[C@H]6O)CC[C@]5(C)[C@H]4CC[C@]3(C)[C@H]2[C@@H]1C)CO[C@@H]1O[C@H](CO)[C@@H](O)[C@H](O)[C@H]1O
Details	cell painting activity score, U-2 OS [1]	relative cell count, U-2 OS [2]
0.625 µM	14.9	0.811
1.25 µM	14.4	0.808
2.5 µM	15.1	0.734
5 µM	16.6	0.502
10 µM	21	0.0412
20 µM	22.7	0.0114

CCCCCCCCCCCCCCCCCCOP(=O)([O-])OC1CC[N+](C)(C)CC1
Details	cell painting activity score, U-2 OS [1]	relative cell count, U-2 OS [2]
0.625 µM	3.72	1.02
1.25 µM	3.21	1.03
2.5 µM	3.03	1.11
5 µM	3.98	1.05
10 µM	3.76	1.05
20 µM	4.51	1.02

C=CCNC1=C2C[C@@H](C)C[C@H](OC)[C@H](O)[C@@H](C)/C=C(\C)[C@H](OC(N)=O)[C@@H](OC)/C=C\C=C(/C)C(=O)NC(=CC1=O)C2=O
Details	cell painting activity score, U-2 OS [1]	relative cell count, U-2 OS [2]
0.625 µM	16.6	0.814
1.25 µM	19.1	0.697
2.5 µM	19.1	0.61
5 µM	19.1	0.586
10 µM	19.2	0.589
20 µM	18.3	0.549

Cc1ccc(S(=O)(=O)/C=C/C#N)cc1
Details	cell painting activity score, U-2 OS [1]	relative cell count, U-2 OS [2]
0.625 µM	10.4	0.923
1.25 µM	12.9	0.942
2.5 µM	16.7	0.678
5 µM	18.3	0.485
10 µM	21	0.231
20 µM	23.7	0.286

O=C(O)C1(C(=O)O)CCC1.[NH2-].[NH2-].[Pt+2]
Details	cell painting activity score, U-2 OS [1]	relative cell count, U-2 OS [2]
0.625 µM	4.1	0.92
1.25 µM	4.15	0.853
2.5 µM	4.49	0.786
5 µM	4.29	0.855
10 µM	5.7	0.844
20 µM	6.66	0.814

CCN(CC)CCNC(=O)c1c(C)[nH]c(/C=C2\C(=O)Nc3ccc(F)cc32)c1C
Details	cell painting activity score, U-2 OS [1]	relative cell count, U-2 OS [2]
0.625 µM	11.2	0.983
1.25 µM	11.5	0.945
2.5 µM	11.3	0.983
5 µM	12.4	0.917
10 µM	14.5	0.831
20 µM	25.1	0.503

CCN1C(=O)C=CC1=O
Details	cell painting activity score, U-2 OS [1]	relative cell count, U-2 OS [2]
0.625 µM	4.77	0.938
1.25 µM	5.69	0.928
2.5 µM	7.04	0.891
5 µM	9.18	0.724
10 µM	20.6	0.254
20 µM	26.6	0.0684
40 µM	5.94	0.911
80 µM	6.33	0.885

COS(=O)(=O)O.C[n+]1c2ccccc2nc2ccccc21
Details	cell painting activity score, U-2 OS [1]	relative cell count, U-2 OS [2]
0.625 µM	4.8	0.956
1.25 µM	5.06	0.92
2.5 µM	9.91	0.807
5 µM	14.3	0.265
10 µM	19.6	0.282
20 µM	23.1	0.0549

[Cl][Pt+2][Cl].[NH2-].[NH2-]
Details	cell painting activity score, U-2 OS [1]	relative cell count, U-2 OS [2]
0.2062 µM	5.52	0.954
0.4124 µM	4.94	0.964
0.825 µM	3.93	0.902
1.65 µM	5.77	0.701
3.3 µM	3.26	0.937
6.6 µM	9.14	0.666

CC(C)(C)c1cc(O)ccc1O
Details	cell painting activity score, U-2 OS [1]	relative cell count, U-2 OS [2]
0.625 µM	4.14	0.908
1.25 µM	4.2	0.958
2.5 µM	5.45	0.948
5 µM	5.28	0.913
10 µM	4.94	0.945
20 µM	7.97	0.949
